According to ChEMBL document CHEMBL3045530, “Synthesis, antimycobacterial, antiviral, antimicrobial activities, and QSAR studies of isonicotinic acid-1-(substituted phenyl)-ethylidene/cycloheptylidene hydrazides” (Med Chem Res, 2012):
Converted amounts (≈) assume the structure as drawn.

How the values were obtained:
[1] = system: Human herpesvirus 3 strain Oka vaccine; assay: Antiviral activity against Human herpesvirus 3 strain Oka vaccine OKA 07-1 (Varicella zoster virus ) infected in human HEL cells assessed as inhibition of virus-induced cytopathicity; format: functional, organism-based; conditions: Human alphaherpesvirus 3, HEL
[2] = Cytotoxicity against Homo sapiens (human) MT4 cells after 4 days by MTT assay; format: cell-based
[3] = system: Human respirovirus 3; assay: Antiviral activity against Human parainfluenza virus 3 infected Vero cells assessed as inhibition of virus-induced cytopathicity by microscopy; format: functional, organism-based; conditions: Human respirovirus 3, Vero
[4] = system: Vesicular stomatitis virus; assay: Antiviral activity against Vesicular stomatitis virus infected human HeLa cells assessed as inhibition of virus-induced cytopathicity by microscopy; format: functional, organism-based
[5] = system: Human immunodeficiency virus 2; assay: Antiviral activity against Human immunodeficiency virus type 2 (ISOLATE ROD) infected MT4 cells assessed as inhibition of virus-induced cytopathic effect after 4 days by MTT assay; format: functional, organism-based; conditions: Human immunodeficiency virus 2, ISOLATE ROD, MT4, 96 h
[6] = system: Human immunodeficiency virus 1; assay: Antiviral activity against Human immunodeficiency virus 1 IIIB infected MT4 cells assessed as inhibition of virus-induced cytopathic effect after 4 days by MTT assay; format: functional, organism-based; conditions: MT4, 96 h
[7] = system: Aspergillus niger; assay: Antimicrobial activity against Aspergillus niger after 7 days by tube dilution method; format: functional
[8] = system: Human herpesvirus 5 strain AD169; assay: Antiviral activity against Human herpesvirus 5 strain AD169 Davis infected human HEL cells assessed as inhibition of virus-induced cytopathicity by microscopy; format: functional, organism-based; conditions: Human betaherpesvirus 5, Davis
[9] = system: Escherichia coli; assay: Antimicrobial activity against Escherichia coli after 24 hr by tube dilution method; format: functional
[10] = system: Staphylococcus aureus; assay: Antimicrobial activity against Staphylococcus aureus after 24 hr by tube dilution method; format: functional
[11] = system: Human alphaherpesvirus 1; assay: Antiviral activity against Human herpesvirus 1 strain KOS infected human HEL cells assessed as inhibition of virus-induced cytopathicity by microscopy by microscopy; format: functional, organism-based; conditions: Human alphaherpesvirus 1, KOS
[12] = system: Candida albicans; assay: Antimicrobial activity against Candida albicans after 48 hr by tube dilution method; format: functional
[13] = system: Bacillus subtilis; assay: Antimicrobial activity against Bacillus subtilis after 24 hr by tube dilution method; format: functional
[14] = system: Coxsackievirus B4; assay: Antiviral activity against Human coxsackievirus B4 infected Vero cells assessed as inhibition of virus-induced cytopathicity; format: functional, organism-based; conditions: Enterovirus B
[15] = system: Sindbis virus; assay: Antiviral activity against Sindbis virus infected Vero cells assessed as inhibition of virus-induced cytopathicity; format: functional, organism-based
[16] = system: Human alphaherpesvirus 2; assay: Antiviral activity against Human herpesvirus 2 strain G infected human HEL cells assessed as inhibition of virus-induced cytopathicity by microscopy; format: functional, organism-based; conditions: Human alphaherpesvirus 2, strain G
[17] = system: Punta Toro virus; assay: Antiviral activity against Punta Toro virus infected Vero cells assessed as inhibition of virus-induced cytopathicity; format: functional, organism-based
[18] = Cytotoxicity against Homo sapiens (human) HEL cells assessed as alteration in cell morphology by microscopy; format: cell-based; conditions: for MCC: read-out: MTC
[19] = system: Human alphaherpesvirus 1; assay: Antiviral activity against TK(-) aciclovir-resistant Human herpesvirus 1 strain KOS infected in human HEL cells assessed as inhibition of virus-induced cytopathicity; format: functional, organism-based; conditions: Human alphaherpesvirus 1, KOS
[20] = system: HEL; assay: Cytostatic against Homo sapiens (human) HEL cells assessed as alteration in cell morphology by microscopy; format: ADME, cell-based
[21] = system: Mammalian orthoreovirus 1; assay: Antiviral activity against Mammalian orthoreovirus 1 infected Vero cells assessed as inhibition of virus-induced cytopathicity by microscopy; format: functional, organism-based; conditions: Mammalian orthoreovirus 1, Vero
[22] = Cytotoxicity against Homo sapiens (human) HeLa cells assessed as alteration in cell morphology by microscopy; format: cell-based; conditions: read-out: MTC
[23] = Cytotoxicity against Chlorocebus aethiops (African green monkey) Vero cells assessed as alteration in cell morphology by microscopy; format: cell-based; conditions: chlorocebus sabaeus, read-out: MTC
[24] = system: Vaccinia virus; assay: Antiviral activity against Vaccinia virus infected human HEL cells assessed as inhibition of virus-induced cytopathicity by microscopy; format: functional, organism-based; conditions: Orthopoxvirus vaccinia
[25] = system: Respiratory syncytial virus; assay: Antiviral activity against Respiratory syncytial virus infected human HeLa cells assessed as inhibition of virus-induced cytopathicity by microscopy; format: functional, organism-based
[26] = system: Coxsackievirus B4; assay: Antiviral activity against Human coxsackievirus B4 infected human HeLa cells assessed as inhibition of virus-induced cytopathicity by microscopy; format: functional, organism-based; conditions: Enterovirus B

Compound	EC50 [1] [µg/mL]	CC50 at 96 h [2] [µg/mL]	EC50 [3] [µg/mL]	EC50 [4] [µg/mL]	EC50 [5] [µg/mL]	EC50 [6] [µg/mL]	-logMIC [7]	EC50 [8] [µg/mL]	-logMIC [9]	-logMIC [10]	EC50 [11] [µg/mL]	-logMIC [12]	-logMIC [13]	EC50 [14] [µg/mL]	EC50 [15] [µg/mL]	EC50 [16] [µg/mL]	EC50 [17] [µg/mL]	CC50 [18] [µg/mL]	MCC [18] [µg/mL]	Activity [20]	other results
C/C(=N\NC(=O)c1ccncc1)c1ccccc1O	1.8 (≈ 7.05 µM)	0.5 (≈ 1.96 µM)	> 4	> 0.2	> 0.5	> 0.5	2.31	> 0.8	2.31	2.01	1.4 (≈ 5.48 µM)	2.61	2.01	> 4	> 4	1.3 (≈ 5.09 µM)	> 4	0.4 (≈ 1.57 µM)	100	Toxic	EC50 [19]: 4 µg/mL (≈ 15.7 µM); EC50 [21]: > 4 µg/mL; MCC [22]: 1 µg/mL; MCC [23]: ≥ 4 µg/mL; EC50 [24]: 3.5 µg/mL (≈ 13.7 µM); EC50 [25]: > 0.2 µg/mL; EC50 [26]: > 0.2 µg/mL
C/C(=N\NC(=O)c1ccncc1)c1ccc(Cl)cc1	> 20	88 (≈ 321 µM)	> 20	> 20	> 88	> 88	2.34	> 20	2.34	2.34	> 20	2.34	2.04	> 20	> 20	> 20	> 20	20 (≈ 73.1 µM)	100	Toxic	EC50 [19]: > 20 µg/mL; EC50 [21]: > 20 µg/mL; MCC [22]: 100 µg/mL; MCC [23]: 100 µg/mL; EC50 [24]: > 20 µg/mL; EC50 [25]: > 20 µg/mL; EC50 [26]: > 20 µg/mL
C/C(=N\NC(=O)c1ccncc1)c1cccc([N+](=O)[O-])c1	> 4	63 (≈ 222 µM)	> 4	> 4	> 63	> 63	2.36	> 20	2.36	2.06	> 20	2.36	2.06	> 4	> 4	> 20	> 4	13 (≈ 45.7 µM)	100	Toxic	EC50 [19]: > 20 µg/mL; EC50 [21]: > 4 µg/mL; MCC [22]: 20 µg/mL; MCC [23]: 20 µg/mL; EC50 [24]: > 20 µg/mL; EC50 [25]: > 4 µg/mL; EC50 [26]: > 4 µg/mL
COc1ccc(/C(C)=N/NC(=O)c2ccncc2)c(OC)c1	> 20	12 (≈ 40.1 µM)	> 20	> 4	> 12	> 12	2.38	> 20	2.08	2.38	> 100	2.68	2.38	> 20	> 20	> 100	> 20	10 (≈ 33.4 µM)	> 100	Toxic	EC50 [19]: > 100 µg/mL; EC50 [21]: > 20 µg/mL; MCC [22]: 20 µg/mL; MCC [23]: 100 µg/mL; EC50 [24]: > 100 µg/mL; EC50 [25]: > 4 µg/mL; EC50 [26]: > 4 µg/mL
Cc1cn([C@H]2C[C@H](N=[N+]=[N-])[C@@H](CO)O2)c(=O)[nH]c1=O [ZIDOVUDINE]		> 25																			
OC(Cn1cncn1)(Cn1cncn1)c1ccc(F)cc1F [FLUCONAZOLE]							2.64					2.64									
Cc1ccnc2c1NC(=O)c1cccnc1N2C1CC1 [NEVIRAPINE]		> 4			> 4																
C/C(=N\NC(=O)c1ccncc1)c1ccc(Cl)cc1Cl	> 20	38 (≈ 123 µM)	> 20	> 20	> 38	> 38	2.39	> 20	2.39	2.09	> 100	2.69	2.09	> 20	> 20	> 100	> 20	11 (≈ 35.7 µM)	> 100	Toxic	EC50 [19]: > 100 µg/mL; EC50 [21]: > 20 µg/mL; MCC [22]: 100 µg/mL; MCC [23]: 100 µg/mL; EC50 [24]: > 100 µg/mL; EC50 [25]: > 20 µg/mL; EC50 [26]: > 20 µg/mL
C/C(=N\NC(=O)c1ccncc1)c1ccccc1Br							2.41		2.41	2.41		2.71	2.71							Toxic	
C/C(=N\NC(=O)c1ccncc1)c1ccc(Br)cc1	> 20	43 (≈ 135 µM)	> 20	> 4	> 43	> 43	2.41	> 20	2.41	2.1	> 20	2.41	2.1	> 20	> 20	> 20	> 20	51 (≈ 160 µM)	≥ 20	Toxic	EC50 [19]: > 20 µg/mL; EC50 [21]: > 20 µg/mL; MCC [22]: 20 µg/mL; MCC [23]: ≥ 20 µg/mL; EC50 [24]: > 20 µg/mL; EC50 [25]: > 4 µg/mL; EC50 [26]: > 4 µg/mL
NNC(=O)c1ccncc1 [ISONIAZID]							2.04		1.74	2.04		2.34	1.74								
CCn1cc(C(=O)O)c(=O)c2cc(F)c(N3CCNCC3)cc21 [NORFLOXACIN]									2.61	2.61			2.61								
